The source of these data is US10717729B2, “Thiamine-organic acid salt” (Purdue Research Foundation, priority 2018, dated 2020).

Structures can show the parent of a compound that is named as a salt.

The conditions of series [1]: dynamic moisture sorption, 25° C. The procedure:
Moisture sorption profiles were generated at 25° C. using an SGA-100 symmetrical gravimetric analyzer (TA Instrument, New Castle, Del.). The samples (5-20 mg) were exposed to 25% to 95% relative humidity (RH) at step size of 5% RH and from 95 to 99% RH at step size of 1% RH, with a maximum step time of 360 min. The equilibrium criteria were set to change of mass of less than 0.01% (w/w) for 5 min for each step. Nitrogen was used as the purge gas.

Turning to `Cc1ncc(C[n+]2csc(CCO)c2C)c(N)n1.[Cl-]` [Thiamine Cl, thiamine chloride], the “relative humidity at which high/elevated hygroscopicity is seen” value in series [1] turned out to be 88 % RH.
As for `Cc1ncc(C[n+]2csc(CCO)c2C)c(N)n1` [Thiamine Cl HCl, thiamine chloride hydrochloride], the stability in solution result was “exhibit instability in solution”. For the same compound, the “relative humidity at which high/elevated hygroscopicity is seen” value in series [1] is recorded as 95 % RH.
